Reference: patent publication US7825256B2, “Inducible nitric oxide synthase dimerization inhibitors” (Kalypsys, Inc., priority 2004, dated 2010)

Biological target: T1, hiNOS (Homo sapiens, UniProt P35228)
T1 construct: expressed in transfected cells; host or cells: HEK293
Assay: DAN assay, hiNOS expressed in transiently transfected HEK293 cells
Type: cell-based
Conditions: HEK293 cells transiently transfected with hiNOS
From the text: The source of nitric oxide synthase (NOS) enzyme can be generated in several ways including induction of endogenous iNOS using cytokines and/or lipopolysaccharide (LPS) in various cell types known in the art. Alternatively, the gene encoding the enzyme can be cloned and the enzyme can be generated in cells via heterologous expression from a transient or stable expression plasmid with suitable features for protein expression as are known in the art. Enzymatic activity (nitric oxide production) is calcium independent for iNOS, while the constitutive NOS isoforms, nNOS and eNOS, become active with the addition of various cofactors added to cellular media or extract as are well known in the art. Enzymes specified in Table 1 were expressed in HEK293 cells transiently transfected with the indicated NOS isoform.
A major metabolic pathway for nitric oxide is to nitrate and nitrite, which are stable metabolites within tissue culture, tissue, plasma, and urine (S Moncada, A Higgs, N Eng J Med 329, 2002 (1993)).
The level of nitrate or nitrite in the specimen can be quantified by any method known in the art which provides adequate sensitivity and reproducibility. A variety of protocols have also been described for detecting and quantifying nitrite and nitrate levels in biological fluids by ion chromatography (e.g., S A Everett et al., J. Chromatogr. 706, 437 (1995); J M Monaghan et al., J. Chromatogr. 770, 143 (1997)), high-performance liquid chromatography (e.g., M Kelm et al., Cardiovasc. Res. 41, 765 (1999)), and capillary electrophoresis (M A Friedberg et al., J. Chromatogr. 781, 491 (1997)). For example, 2,3-diaminonaphthalene reacts with the nitrosonium cation that forms spontaneously from NO to form the fluorescent product […]. Using 2,3-diaminonaphthalene (“DAN”), researchers have developed a rapid, quantitative fluorometric assay that can detect from 10 nM to 10 μM nitrite and is compatible with a multi-well microplate format. […] DAN reacts with nitrite ion and gives fluorescent […] (M C Carré et al., Analysis 27, 835-838 (1999)). Table 1 provides the test results of various compounds of the subject invention using the DAN assay.
A specimen can be processed prior to determination of nitrate or nitrite as required by the quantification method, or in order to improve the results, or for the convenience of the investigator. For example, processing can involve centrifuging, filtering, or homogenizing the sample. If the sample is whole blood, the blood can be centrifuged to remove cells and the nitrate or nitrite assay performed on the plasma or serum fraction. If the sample is tissue, the tissue can be dispersed or homogenized by any method known in the art prior to determination of nitrate or nitrite. It may be preferable to remove cells and other debris by centrifugation or another method and to determine the nitrate or nitrite level using only the fluid portion of the sample, or the extracellular fluid fraction of the sample. The sample can also be preserved for later determination, for example by freezing of urine or plasma samples. When appropriate, additives may be introduced into the specimen to preserve or improve its characteristics for use in the nitrate or nitrite assay.
The “level” of nitrate, nitrite, or other NO-related product usually refers to the concentration (in moles per liter, micromoles per liter, or other suitable units) of nitrate or nitrite in the specimen, or in the fluid portion of the specimen. However, other units of measure can also be used to express the level of nitrate or nitrite. For example, an absolute amount (in micrograms, milligrams, nanomoles, moles, or other suitable units) can be used, particularly if the amount refers back to a constant amount (e.g., grams, kilograms, milliliters, liters, or other suitable units) of the specimens under consideration. A number of commercially available kits can be used.

Structure (SMILES) | EC50 [µM]
CN(CCCN)c1nc(-n2ccnc2)ns1 [Example 6, N-1-(3-Imidazol-1-yl-[1,2,4]thiadiazol-5-yl)-N-1-methyl-propane-1,3-diamine] | > 50
CN(CCCNCc1ccc(Cl)cc1)c1nc(-n2ccnc2)ns1 [Example 7, N′-(4-Chloro-benzyl)-N-(3-imidazol-1-yl-[1,2,4]thiadiazol-5-yl)-N-methyl-propane-1,3-diamine] | < 50
CN(CCCNCc1ccc(F)c(F)c1)c1nc(-n2ccnc2)ns1 [Example 9, N′-(3,4-Difluro-benzyl)-N-(3-imidazol-1-yl-[1,2,4]thiadiazol-5-yl)-N-methyl-propane-1,3-diamine] | > 50
CN(CCCNCc1c(Cl)cccc1Cl)c1nc(-n2ccnc2)ns1 [Example 10, N′-(2,6-Dichloro-benzyl)-N-(3-imidazol-1-yl-[1,2,4]thiadiazol-5-yl)-N-methyl-propane-1,3-diamine] | > 50
CN(CCCNCc1ccc(C(F)(F)F)cc1)c1nc(-n2ccnc2)ns1 [Example 11, N-(3-Imidazol-1-yl-[1,2,4]thiadiazol-5-yl)-N-methyl-N′-(4-trifluoromethyl-benzyl)-propane-1,3-diamine] | > 50
CN(CCCNCc1ccc2[nH]ccc2c1)c1nc(-n2ccnc2)ns1 [Example 18, N-(3-Imidazol-1-yl-[1,2,4]thiadiazol-5-yl)-N′-(1H-indol-5-ylmethyl)-N-methyl-propane-1,3-diamine] | > 50
CN(CCCNCc1cc2ccccc2n1C)c1nc(-n2ccnc2)ns1 [Example 19, N-(3-Imidazol-1-yl-[1,2,4]thiadiazol-5-yl)-N-methyl-N′-(1-methyl-1H-indol-2-ylmethyl)-propane-1,3-diamine] | > 50
CN(CCCNCc1cccs1)c1nc(-n2ccnc2)ns1 [Example 20, N-(3-Imidazol-1-yl-[1,2,4]thiadiazol-5-yl)-N-methyl-N′-thiophen-2-ylmethyl-propane-1,3-diamine] | > 50
CN(CCCNCc1ccncc1)c1nc(-n2ccnc2)ns1 [Example 21, N-(3-Imidazol-1-yl-[1,2,4]thiadiazol-5-yl)-N-methyl-N′-pyridin-4-ylmethyl-propane-1,3-diamine] | > 50
COc1ccc(CNCCCN(C)c2nc(-n3ccnc3)ns2)cc1OC [Example 22, N′-(3,4-Dimethoxy-benzyl)-N-(3-imidazol-1-yl-[1,2,4]thiadiazol-5-yl)-N-methyl-propane-1,3-diamine] | > 50
O=C(NCCc1ccc2c(c1)OCO2)[C@@H]1CCCN1c1nc(-n2ccnc2)ns1 [Example 25, (S)-1-(3-Imidazol-1-yl-[1,2,4]thiadiazol-5-yl)-pyrrolidine-2-carboxylic acid (2-benzo[1,3]dioxol-5-yl-ethyl)-amide] | > 50
O=C(NCCc1ccc2c(c1)OCO2)[C@@H]1C[C@@H](O)CN1c1nc(-n2ccnc2)ns1 [Example 27, (2S,4R)-4-Hydroxy-1-(3-imidazol-1-yl-[1,2,4]thiadiazol-5-yl)-pyrrolidine-2-carboxylic acid (2-benzo[1,3]dioxol-5-yl-ethyl)amide] | < 1
CN(CC(=O)NCCc1ccc2c(c1)OCO2)c1nc(-n2ccnc2)ns1 [Example 30, N-(2-Benzo[1,3]dioxol-5-yl-ethyl)-2-[(3-imidazol-1-yl-[1,2,4]thiadiamol-5-yl)-methyl-amino]-acetamide] | < 1
CCCN(CCCNCc1ccc2c(c1)OCO2)c1nc(-n2ccnc2)ns1 [Example 31, N′-Benzo[1,3]dioxol-5-ylmethyl-N-(3-imidazol-1-yl-[1,2,4]thiadiazol-5-yl)-N-propyl-propane-1,3-diamine] | < 1
c1cn(-c2nsc(N(CCCNCc3ccc4c(c3)OCO4)C3CC3)n2)cn1 [Example 32, N′-Benzo[1,3]dioxol-5-ylmethyl-N-cyclopropyl-N-(3-imidazol-1-yl-[1,2,4]thiadiazol-5-yl)-propane-1,3-diamine] | < 1
c1cn(-c2nsc(N3CCN(Cc4ccc5c(c4)OCO5)CC3)n2)cn1 [Example 33, 1-Benzo[1,3]dioxol-5-ylmethyl-4-(3-imidazol-1-yl-[1,2,4]thiadiazo-5-yl)-piperazine] | < 50
CN(CCCNS(=O)(=O)c1ccc(OC(F)(F)F)cc1)c1nc(-n2ccnc2)ns1 [Example 34, N-{3-[(3-Imidazol-1-yl-[1,2,4]thiadiazol-5-yl)-methyl-amino]-propyl}-4-trifluoromethoxy-benzenesulfonamide] | > 50

Results, then the compound that gave them:

EC50 [µM] | Structure (SMILES)
< 1 | CCOC(=O)C1CCC(C(=O)NCCc2ccc3c(c2)OCO3)N1c1nc(-n2ccnc2)ns1 (racemic) [Example 94, 5-(2-Benzo[1,3]dioxol-5-yl-ethylcarbamoyl)-1-(3-imidazol-1-yl-[1,2,4]thiadiazol-5-yl)-pyrrolidine-2-carboxylic acid ethyl ester]
< 1 | Cc1cc(C(C)N2CCC[C@@H]2C(=O)NCc2ccc3c(c2)OCO3)nc(-n2ccnc2)n1 (mixture of isomers) [Example 121, 1-[1-(2-Imidazol-1-yl-6-methyl-pyrimidin-4-yl)-ethyl]-pyrrolidine-2-carboxylic acid (benzo[1,3]dioxol-5-ylmethyl)-amide]
< 1 | Cc1cc(C(C)NCCN(C)Cc2ccc3c(c2)OCO3)nc(-n2ccnc2)n1 (single isomer, unassigned) [Example 130, N-Benzo[1,3]dioxol-5-ylmethyl-N′-[1-(2-imidazol-1-yl-6-methyl-pyrimidin-4-yl)-ethyl]-N-methyl-ethane-1,2-diamine]
< 1 | Cc1cc(C(C)NCCN(C)Cc2ccc3c(c2)OCO3)nc(-n2ccnc2)n1 (single isomer, unassigned) [Example 131, N-Benzo[1,3]dioxol-5-ylmethyl-N-[1-(2-imidazol-1-yl-6-methyl-pyrimidin-4-yl)-ethyl]-N-methyl-ethane-1,2-diamine]
< 1 | Cc1cc(C2CCCN2CCNCc2ccc3c(c2)OCO3)nc(-n2ccnc2)n1 (single isomer, unassigned) [Example 132, Benzo[1,3]dioxol-5-ylmethyl-{2-[2-(2-imidazol-1-yl-6-methyl-pyrimidin-4-yl)-pyrrolidin-1-yl]-ethyl}-amine]
< 1 | COc1ccc(CNCCCN(C)c2nc(-n3ccnc3)ns2)cc1 [Example 8, N-(3-Imidazol-1-yl-[1,2,4]thiadiazol-5-yl)-N′-(4-methoxy-benzyl)-N-methyl-propane-1,3-diamine]
< 1 | Cc1cc(CNC(=O)CNCc2ccc3c(c2)OCO3)nc(-n2ccnc2)n1 [Example 14]
< 1 | CN(CCCNCc1ccc2c(c1)OCCO2)c1nc(-n2ccnc2)ns1 [Example 16, N′-(2,3-Dihydro-benzo[1,4]dioxin-6-ylmethyl)-N-(3-imidazol-1-yl-[1,2,4]thiadiazol-5-yl)-N-methyl-propane-1,3-diamine]
< 1 | COc1ccc(CNCCCN(C)c2nc(-n3ccnc3)ns2)c(OC)c1 [Example 17, N′-(2,4-Dimethoxy-benzyl)-N-(3-imidazol-1-yl-[1,2,4]thiadiazol-5-yl)-N-methyl-propane-1,3-diamine]
< 1 | C[C@H](Nc1nc(-n2ccnc2)ns1)C(=O)NCCc1ccc2c(c1)OCO2 [Example 23, (S)—N-(2-Benzo[1,3]dioxol-5-yl-ethyl)-2-(3-imidazol-1-yl-[1,2,4]thiadiazol-5-ylamino)-propionamide]
< 1 | CC(C)[C@H](Nc1nc(-n2ccnc2)ns1)C(=O)NCCc1ccc2c(c1)OCO2 [Example 24, (S)—N-(2-Benzo[1,3]dioxol-5-yl-ethyl)-2-(3-imidazol-1-yl-[1,2,4]thiadiazol-5-ylamino)-3-methyl-butyramide]
< 1 | O=C(NCCc1ccc2c(c1)OCO2)[C@H]1CCCCN1c1nc(-n2ccnc2)ns1 [Example 26, (R)-1-(3-Imidazol-1-yl-[1,2,4]thiadiazol-5-yl)-piperidine-2-carboxylic acid (2-benzo[1,3]dioxol-5-yl-ethyl)-amide]
